Data from the supplement of paper PMC8671470.

What was measured:
Conditions in all cases: 72 h
BV-173 [1] = test system: BV-173
How it was run: (§1)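 Fifteen myeloid leukaemia lines in RPMI 1640 were treated for 72 h at 37 °C and 5% CO2 with five tenfold doses from 1 to 10,000 nM, in duplicate. ATP luminescence was normalised to vehicle and to a positive control at 10 µM, then fitted with a four-parameter log-logistic model. The IC50 came from these fits.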

HEL [2] = test system: HEL
How it was run: as §1

HL-60 [3] = test system: HL-60
How it was run: as §1

K-562 [4] = test system: K-562
How it was run: as §1

KCL-22 [5] = test system: KCL-22
How it was run: as §1

KG-1 [6] = test system: KG-1
How it was run: as §1

KU-812 = test system: KU-812
How it was run: as §1

LAMA-84 [7] = test system: LAMA-84
How it was run: as §1

ML-2 [8] = test system: ML-2
How it was run: as §1

MOLM-13 = test system: MOLM-13
How it was run: as §1

MV4-11 [9] = test system: MV4-11
How it was run: as §1

Mono-Mac-6 [10] = test system: Mono-Mac-6
How it was run: as §1

NOMO-1 = test system: NOMO-1
How it was run: as §1

SHI-1 [11] = test system: SHI-1
How it was run: as §1

THP-1 = test system: THP-1
How it was run: as §1

HL-60 [12] = test: cell viability (% survival relative to DMSO control); higher = less cytotoxic
How it was run: (§2)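 For each screen, HL-60 cells in RPMI 1640 with 10% FBS carried either DMSO or 100 nM of one of three metabolic inhibitors while the full library was applied at five tenfold concentrations, 1–10,000 nM, in duplicate. Plates were 384-well and were kept 72 h at 37 °C, 5% CO2. Viability, measured by CellTiter-Glo, was normalised to wells with DMSO and with 10 μM proteasome inhibitor. Where area under the curve appears, it was fitted by four-parameter log-logistic models in drc and PharmacoGx.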

BV-173 [13] = test: cell viability (% survival relative to DMSO control, bortezomib = 0%); higher = less cytotoxic
How it was run: (§3)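 Fifteen myeloid leukaemia cell lines were exposed to compounds at 1, 10, 100, 1000 or 10000 nM in 384-well plates for 72 h at 37 °C and 5% CO2. Viability was read by CellTiter-Glo luminescence and normalised, with vehicle as 100% and a 10 µM positive control as 0%. Values are percent survival averaged over duplicates.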

HEL [14] = test: as above
How it was run: as §3

HL-60 [15] = test: as above
How it was run: as §3

K-562 [16] = test: as above
How it was run: as §3

KCL-22 [17] = test: as above
How it was run: as §3

KG-1 [18] = test: as above
How it was run: as §3

LAMA-84 [19] = test: as above
How it was run: as §3

ML-2 [20] = test: as above
How it was run: as §3

MV4-11 [21] = test: as above
How it was run: as §3

Mono-Mac-6 [22] = test: as above
How it was run: as §3

SHI-1 [23] = test: as above
How it was run: as §3

HL-60 [24] = test: area under dose-response curve (viability, 1 nM-10 uM) (fraction (0-1)); higher = more sensitive
How it was run: as §2

CCC(CC#N)OC(=O)N[C@@H](C)c1cccc(NC(=O)Nc2ccc(-c3cnco3)c(OC)c2)c1 (stereo in doubt) [AVN-944]
Conditions	IC50 (cell viability) [µM]
BV-173 [1]	0.118
HEL [2]	0.151
HL-60 [3]	0.182
K-562 [4]	0.0558
KCL-22 [5]	0.0628
KG-1 [6]	0.173
KU-812	0.0949
LAMA-84 [7]	0.0736
ML-2 [8]	0.0668
MOLM-13	0.0449
MV4-11 [9]	0.0781
Mono-Mac-6 [10]	0.151
NOMO-1	0.451
SHI-1 [11]	0.137
THP-1	1.9

cell viability [%], HL-60 [12]
Conditions	0.001 µM	0.01 µM	0.1 µM	1 µM	10 µM
co-treatment: AZD3965 100 nM	96.6	102	102	35.4	8.09
co-treatment: DMSO vehicle	99.36	97.01	103	50	12.9
co-treatment: GSK2194069 100 nM	99.2	105	100	53	12.3
co-treatment: pictilisib 100 nM	102.95	98.5	93.8	48.9	9.49

Conditions	area under dose-response curve, co-treatment: AZD3965 100 nM	area under dose-response curve, co-treatment: DMSO vehicle	area under dose-response curve, co-treatment: GSK2194069 100 nM	area under dose-response curve, co-treatment: pictilisib 100 nM	cell viability, 1 nM [%]	cell viability, 10 nM [%]	cell viability, 100 nM [%]	cell viability, 1000 nM [%]	cell viability, 10000 nM [%]
BV-173 [13]	–	–	–	–	93.8	80.7	50.8	-0.621	-0.6
HEL [14]	–	–	–	–	101	119	70	4.65	2.7
HL-60 [15]	–	–	–	–	94.9	85.7	61.6	12.6	1.98
HL-60 [24]	0.273	0.233	0.227	0.255	–	–	–	–	–
K-562 [16]	–	–	–	–	103	96.9	30.3	10.1	5.46
KCL-22 [17]	–	–	–	–	94.6	114	32.7	11.6	7.56
KG-1 [18]	–	–	–	–	108	99.4	74.1	27	20.2
LAMA-84 [19]	–	–	–	–	92.5	102	43.9	19	12.5
ML-2 [20]	–	–	–	–	99.6	111	29.5	1.17	-0.0869
MV4-11 [21]	–	–	–	–	92.1	96.4	35.8	-0.602	-0.425
Mono-Mac-6 [22]	–	–	–	–	90.2	90.5	60.2	16.4	8.67
SHI-1 [23]	–	–	–	–	104	107	68.2	12.4	8.7
